Experimental data reported in US12038433B2, “Methods and apparatus for high-throughput screening for testing permeability and retention of compounds across biological barriers” (Board of Regents, The University of Texas System, priority 2019, dated 2024).

Assays:
[1] = 96-well plate permeation study of doxycycline, skin measured with mass spec pen; assay type: in vitro ADME; details: 24 hours, different concentrations applied
Method: A permeation study was done using the 96-well plates screening method over a course of 24 hours. Doxycycline at different concentrations was used as a model drug. After 24 hours, the receptor fluid was removed, and the plates were disassembled. The mass spec pen (described by Zhang et al. and Sans et al.) was used to measure the amount of doxycycline on the top layers of the skin (epidermis side) and on the bottom layers of the skin (dermis side) by flipping the skin upside down (26, 27).

[2] = not tape-stripped; cited from earlier work
[3] = Permeation of SRB across tape-stripped skin, 96-well HTS compared with Franz cells, receptor fluid fluorescence; assay type: in vitro ADME, human; details: SRB 0.5 mg/ml, 8 h, 32° C., p-value >0.05 (FIG. 7)
Text: “The 96-well plates, with and without bottom, were modified by inserting 2 symmetric and parallel holes in each side of the plate using a drill. The holes were made in order to attach the plates together as a sandwich. The skin was tape-stripped 15 times, rubbing with a thumb three times before each strip (in the same manner as for the Franz cells). Tape-stripping was necessary to allow for drug permeation across the skin and direct quantification in the receptor compartment. […] The receptor fluid analysis was needed to compare permeability of SRB between methods (FC and HTS).”
“The 96-well plate with the bottom was used as the receptor compartment. The volume of each well is 380 μL and the area of diffusion is 0.38 cm^2. The receptor compartment was overfilled with degassed PBS (pH=7.4) to avoid the formation of any bubbles that would hinder drug permeation. […]
The plate was incubated at 32° C. for 1 h. […] After 8 h, the plates were disassembled and the receptor plate was analyzed using a spectrophotometer (Infinite M200 microplate reader, TECAN US Inc, NC, USA) for the quantification of fluorescence intensity (λexcitation=550 nm and λemission=590 nm). Standard solutions of SRB in PBS (pH=7.4) in the range of 500-0.03 μg/ml were prepared and the fluorescence intensity was measured to obtain the calibration curve. […]

[4] = Feasibility in vitro permeation study using squared and flat 384-well plates; assay type: in vitro ADME; details: 8 h, between the 0.5 mg/ml SRB and the 0.05 mg/ml SRB applied, lateral diffusion present
Method: Feasibility studies were conducted using squared and flat 384-well plates with no ridges or projected wells. The plates were assembled the same way as presented in Example 4. […] […] […] Samples were taken after 8 h and measured using fluorescence in a plate reader.

[5] = HTS formulation screening, permeability of SRB across the skin into the receptor fluid (plate reader fluorescence); assay type: in vitro ADME, human; details: not statistically significant (FIG. 10 E)
Method: (§1) Two bottomless 96-well plates from Greiner bio-one were used.
(§2) The receptor plate was sealed with an adhesive film and overfilled with PBS (pH=7.4).
(§3) An 8×9 cm of skin tissue was placed on top of the receptor plate, dermis side in contact with the receptor fluid and stratum corneum up. The donor plate was placed on top of the skin. A 4 kg weight was placed on top and nuts were attached to the plate.
(§4) This sandwich was incubated for 1 hour at 32 deg C. and 75 rpm. After 1 hour, the formulations prepared in Table 1 and containing 0.5 mg/ml of SRB as a model hydrophilic drug were applied in triplicate to the donor wells.
(§5) The receptor compartment was analyzed by fluorescence using a plate reader and the skin was analyzed using 2 photon microscopy, the same way as described in Example 4. Images were collected at 256×256 pixels and 223.78 μm×223.78 μm. The z-axis profile was obtained by acquiring images at every 10 μm down the skin, up to 200 μm. The detailed 2-photon analysis utilized in this study took approximately 2 h (around a minute to 2 min for each well).

[6] = Skin retention analysis of SRB by two-photon-induced fluorescence imaging (FC vs HTS); assay type: in vitro ADME, human; details: surface down to 150 μm, after 8 h (FIG. 8)
Text: A two-photon-induced fluorescence imaging was used to determine the retention of SRB in the skin using a Prairie Technologies Ultimalntravital 2PA confocal microscope system (Park et al., 2008; Denk et al., 1990). The microscope objective was an Olympus® 10×, 0.30 NA, UMPlanFL N water immersion lens. Two-photon laser excitation was provided by a Spectra-Physics Tsunami® Ti:Sapphire laser with a τP=150 fs and P=108 mW. The laser was tuned to 1000 nm, since SRB excites at 550 nm and no skin autofluorescence is observed at this wavelength. Four fluorescence channels were detected simultaneously during imaging. The photomultiplier tube (PMT) bias voltages for each channel were set to 650 V for channel 1, 650 V for channel 2 (where SRB is detected), 800 V for channel 3 (where we can measure the autofluorescence of the skin), and 800 V for channel 4. Skin autofluorescence or second harmonic generation of collagen were detected in channels 3 and 4, respectively (Roberts et al., 2011). The fluorescence emission of SRB was recorded in channel 2 (λ=595±35 nm) since the wavelength of emission for SRB is 590 nm. Skin images were recorded above the surface of the skin and the maximum fluorescence intensity was considered to be the top layer or surface of the skin since excess of formulation was still present at the top of the skin at the end of the permeation study (8 h). […]

[7] = HTS formulation screening, retention of SRB in skin layers by 2 photon microscopy (3x2x3 full factorial design); assay type: in vitro ADME, human
Method: as §1, §2, §3, §4, §5
A 3×2×3 full factorial design was used to design the experiment and statistically analyze the differences in permeation and retention of the formulations applied in the skin.

| SMILES | permeation, amount on top (epidermis side) and bottom (dermis side) layers of the skin [1] | permeation across intact skin [2] | permeation and distribution of the drug, Franz cells (FC) vs HTS [3] | permeability of SRB across the skin [4] | amount of drug across the skin, into the receptor solution ([5]; OA (oleic acid) in the formulation) | amount of SRB across the skin ([5]; increasing the concentration of Tween 80) | depth profile/Z-axis profile, relative change in fluorescence intensity over every 5 μm depth in the skin, FC vs HTS [6] | amount of SRB inside the skin ([7]; 5% and 2.5% surfactant concentration compared to no surfactant, post hoc analysis) | amount of the model drug in the skin layers ([7]; DMSO alone compared to 50:50 mixture of DMSO:Propylene glycol) | amount of SRB into the skin ([7]; DMSO compared to Propylene glycol alone, only at lower depths (100-150 micrometers)) | amount of drug inside the skin ([7]; OA (oleic acid) in the formulation, PG solvent (FIG. 10 A, B)) | amount of SRB inside the skin ([7]; increasing the concentration of Tween 80, PG solvent (FIG. 10 C, D)) | Statistically significant variables on the amount of SRB retained ([7]; skin depth 0 μm, solvent ratio factor) | Statistically significant variables on the amount of SRB retained ([7]; skin depth 0 μm, surfactant concentration factor) | Statistically significant variables on the amount of SRB retained ([7]; skin depth 20 μm, solvent ratio factor) | Statistically significant variables on the amount of SRB retained ([7]; skin depth 20 μm, surfactant concentration factor) | Statistically significant variables on the amount of SRB retained ([7]; skin depth 100 μm, solvent ratio factor) | Statistically significant variables on the amount of SRB retained ([7]; skin depth 100 μm, surfactant concentration factor) | Statistically significant variables on the amount of SRB retained ([7]; skin depth 150 μm) |
| --- | --- | --- | --- | --- | --- | --- | --- | --- | --- | --- | --- | --- | --- | --- | --- | --- | --- | --- | --- |
| C[C@H]1c2cccc(O)c2C(=O)C2=C(O)[C@]3(O)C(=O)C(C(N)=O)=C(O)[C@@H](N(C)C)[C@@H]3[C@@H](O)[C@@H]21 [Doxycycline] | Changes in permeation were detected | – | – | – | – | – | – | – | – | – | – | – | – | – | – | – | – | – | – |
| CCN(CC)c1ccc2c(-c3ccc(S(=O)(=O)O)cc3S(=O)(=O)[O-])c3ccc(=[N+](CC)CC)cc-3oc2c1 [SRB, Sulforhodamine B] | – | unable to permeate intact skin | almost identical | changed | also across the skin | not across the skin | similar | increases the amount of SRB inside the skin | enhances the amount of the model drug in all the skin layers | significantly enhance the amount of SRB into the skin | increased the amount of drug inside the skin | increased the amount of SRB inside the skin | Solvent ratio (*) | Surfactant concentration (**) | Solvent ratio (**) | Surfactant concentration (*) | Solvent ratio (**) | Surfactant concentration (*) | Solvent ratio (**) |
